How the values were obtained:
HepG2 = test: Antiproliferative activity against human HepG2 cells incubated for 48 hrs by CCK-8 assay; type: functional, cell-based; details: HepG2, 48 h
[1] = Antiproliferative activity against human HEK293T cells incubated for 48 hrs by CCK-8 assay; type: toxicity, cell-based, HEK-293T
MDA-MB-231 = test: Antiproliferative activity against human MDA-MB-231 cells incubated for 48 hrs by CCK-8 assay; type: functional, cell-based; details: MDA-MB-231, 48 h
SW480 = test: Antiproliferative activity against human SW480 cells incubated for 48 hrs by CCK-8 assay; type: functional, cell-based; details: SW480, 48 h
HeLa = test: Antiproliferative activity against human HeLa cells incubated for 48 hrs by CCK-8 assay; type: functional, cell-based
HCT-116 = test: Antiproliferative activity against human HCT-116 cells incubated for 48 hrs by CCK-8 assay; type: functional, cell-based; details: HCT-116, 48 h

SMILES	IC50 (HepG2) [µM]	IC50 (MDA-MB-231) [µM]	IC50 (SW480) [µM]	IC50 (HeLa) [µM]	IC50 (HCT-116) [µM]	IC50 at 48 h [1] [µM]
COc1cc(-c2nc(N)ncc2-c2cn(S(=O)(=O)c3ccccc3)c3ccccc23)cc(OC)c1OC	–	–	–	–	> 64	–
COc1cc(-c2ccnn2-c2ccc(S(C)(=O)=O)cc2)cc(OC)c1OC	–	–	–	–	> 64	–
COc1cc(-c2ccnn2-c2ccc(C)cc2)cc(OC)c1OC	10.3	7.29	37.9	46.6	17	> 80
COc1cc(-c2ccnn2-c2cccc(N)c2)cc(OC)c1OC	–	–	–	–	> 64	–
COc1cc(-c2ccnn2-c2ccc(C)c(C)c2)cc(OC)c1OC	–	–	–	–	> 64	–
COc1cc(-c2ccnn2-c2cccc([N+](=O)[O-])c2)cc(OC)c1OC	–	–	–	–	> 64	–
COc1cc(-c2ccnn2-c2ccc(O)cc2)cc(OC)c1OC	–	–	–	–	> 64	–
COc1cc(-c2ccnn2-c2ccc(F)cc2)cc(OC)c1OC	–	–	–	–	> 64	–
COc1cc(-c2ccnn2-c2cccnc2)cc(OC)c1OC	–	–	–	–	> 64	–
COc1cc(-c2ccnn2-c2ccc([N+](=O)[O-])cc2)cc(OC)c1OC	–	–	–	–	> 64	–
COc1cc(-c2ccnn2-c2ccccc2[N+](=O)[O-])cc(OC)c1OC	–	–	–	–	> 64	–
COc1ccc(-n2nccc2-c2cc(OC)c(OC)c(OC)c2)cc1	–	–	–	–	> 64	–
COc1cc(-c2ccnn2-c2ccc(C#N)cc2)cc(OC)c1OC	–	–	–	–	> 64	–
COc1cc(-c2ccnn2-c2cccc3ccccc23)cc(OC)c1OC	–	–	–	–	> 64	–
COc1cc(-c2ccnn2-c2ccc(OCc3ccccc3)cc2)cc(OC)c1OC	–	–	–	–	> 64	–
COc1cc(-c2ccnn2-c2ccc(Br)cc2)cc(OC)c1OC	–	–	–	–	> 64	–
COc1cc(-c2ccnn2-c2ccc(Cl)cc2)cc(OC)c1OC	–	–	–	–	> 64	–
COC(=O)c1ccc(-n2nccc2-c2cc(OC)c(OC)c(OC)c2)cc1	–	–	–	–	> 64	–
COc1cc(-c2ccnn2-c2ccc(I)cc2)cc(OC)c1OC	5.64	8.21	28.2	23.4	14.7	> 80
CNS(=O)(=O)Cc1ccc(-n2nccc2-c2cc(OC)c(OC)c(OC)c2)cc1	–	–	–	–	> 64	–
COc1cc(-c2ccnn2-c2nccs2)cc(OC)c1OC	–	–	–	–	> 64	–
COc1cc(-c2ccnn2-c2ccc(S(N)(=O)=O)cc2)cc(OC)c1OC	–	–	–	–	> 64	–
COc1cc(-c2ccnn2-c2ccc(C(=O)O)cc2)cc(OC)c1OC	–	–	–	–	> 64	–
COc1cc(-c2ccnn2-c2ccc(CO)cc2)cc(OC)c1OC	–	–	–	–	> 64	–

Further lines, with some results ahead:

IC50 (HepG2) [µM]	IC50 (MDA-MB-231) [µM]	IC50 (SW480) [µM]	IC50 (HeLa) [µM]	IC50 (HCT-116) [µM]	SMILES	IC50 at 48 h [1] [µM]
1.37	27.1	36.8	19.3	3.87	COc1cc(-c2nc(N)ncc2-c2ccc3cc[nH]c3c2)cc(OC)c1OC	> 80
–	–	–	–	> 64	COc1cc(-c2nc(N)ncc2-c2ccc(F)cc2)cc(OC)c1OC	–
–	–	–	–	> 64	COc1cc(-c2nc(N)ncc2-c2ccccc2)cc(OC)c1OC	–
–	–	–	–	> 64	COc1cc(-c2nc(N)ncc2-c2ccc([N+](=O)[O-])cc2)cc(OC)c1OC	–
2.04	14	> 64	> 64	16.7	COCc1ccc(-c2cnc(N)nc2-c2cc(OC)c(OC)c(OC)c2)cc1	> 80
17	11.6	52.2	> 64	7.45	COc1ccc(-c2cnc(N)nc2-c2cc(OC)c(OC)c(OC)c2)cc1N	> 80
52.1	> 64	> 64	37.8	11.8	COc1cc(-c2nc(N)ncc2-c2ccc(SC)cc2)cc(OC)c1OC	> 80
0.25	14.5	5.99	17.9	4.22	COc1cc(-c2nc(N)ncc2-c2cc3ccccc3s2)cc(OC)c1OC	> 80
–	–	–	–	> 64	COC(=O)c1ccc(-c2cnc(N)nc2-c2cc(OC)c(OC)c(OC)c2)cc1	–
> 64	> 64	> 64	> 64	> 64	COc1ccc(-c2cnc(NC(C)=O)nc2-c2cc(OC)c(OC)c(OC)c2)cc1N	> 80
–	–	–	–	> 64	COc1cccc(-c2cnc(N)nc2-c2cc(OC)c(OC)c(OC)c2)c1	–
–	–	–	–	> 64	COc1cc(-c2nc(N)ncc2-c2cnc(N)nc2)cc(OC)c1OC	–
29.9	22.4	> 64	60.5	12.7	COc1ccc(-c2cnc(N)nc2-c2cc(OC)c(OC)c(OC)c2)cc1	> 80
–	–	–	–	> 64	COc1cc(-c2cnc(N)nc2-c2cc(OC)c(OC)c(OC)c2)ccc1O	–
–	–	–	–	> 64	COc1cc(-c2nc(N)ncc2-c2ccccc2C)cc(OC)c1OC	–
0.57	4.69	4.32	11.2	3.04	CCn1c2ccccc2c2cc(-c3cnc(N)nc3-c3cc(OC)c(OC)c(OC)c3)ccc21	> 80
–	–	–	–	> 64	COc1cc(-c2nc(N)ncc2-c2ccc3c(c2)OCCO3)cc(OC)c1OC	–

IC50 (HepG2) [µM]	IC50 (MDA-MB-231) [µM]	IC50 (SW480) [µM]	IC50 (HeLa) [µM]	IC50 (HCT-116) [µM]	SMILES	IC50 at 48 h [1] [µM]
–	–	–	–	> 64	COc1cc(-c2nc(N)ncc2-c2ccc3c(cnn3C)c2)cc(OC)c1OC	–
–	–	–	–	> 64	COc1cc(-c2nc(N)ncc2-c2ccc(Cl)cc2)cc(OC)c1OC	–
–	–	–	–	> 64	COc1ccc(-c2cnc(N)nc2-c2cc(OC)c(OC)c(OC)c2)cc1C=O	–
–	–	–	–	> 64	COc1cc(-c2nc(N)ncc2-c2c[nH]c3ccccc23)cc(OC)c1OC	–
–	–	–	–	> 64	CCOc1cc(-c2cnc(N)nc2-c2cc(OC)c(OC)c(OC)c2)ccc1Cl	–
–	–	–	–	38.5	COc1cc(-c2nc(N)ncc2-c2ccc(N)cc2)cc(OC)c1OC	–
–	–	–	–	> 64	COc1cc(-c2cnc(N)nc2-c2cc(OC)c(OC)c(OC)c2)cc(OC)c1OC	–
–	–	–	–	> 64	COc1cc(-c2nc(N)ncc2-c2ccc(S(C)(=O)=O)cc2)cc(OC)c1OC	–
45.8	> 64	39.7	25.2	> 64	COc1cc(-c2nc(N)ncc2-c2ccc(C)cc2)cc(OC)c1OC	> 80
–	–	–	–	> 64	COc1ccc(-c2cnc(N)nc2-c2cc(OC)c(OC)c(OC)c2)cc1Cl	–
30.8	> 64	5.05	7.54	14.7	COc1cc(-c2nc(N)ncc2-c2ccc3c(ccn3C)c2)cc(OC)c1OC	> 80
–	–	–	–	> 64	COc1cc(-c2nc(N)ncc2-c2ccc(CO)cc2)cc(OC)c1OC	–
–	–	–	–	> 64	COc1cc(-c2nc(N)ncc2-c2cccc(C)c2)cc(OC)c1OC	–
15.2	> 64	> 64	> 64	23.9	COc1cc(-c2nc(N)ncc2-c2ccc(C)c(C)c2)cc(OC)c1OC	> 80
–	–	–	–	> 64	COc1ccc(-n2nccc2-c2cc(OC)c(OC)c(OC)c2)cn1	–
34.1	10.6	58.4	32.3	13	COc1ccc(-c2cnc(N)nc2-c2cc(OC)c(OC)c(OC)c2)cc1F	> 80
–	–	–	–	> 64	COc1ccc(-c2cnc(N)nc2-c2cc(OC)c(OC)c(OC)c2)cc1[N+](=O)[O-]	–
